In PubChem BioAssay AID1963825 (Molecular Pharmacology Branch, DTP, NCI, 2024):

Assay: Anticancer human tumor 997537-175-T-J1-PDC patient-derived colon adenocarcinoma cell line growth inhibition [POLQ]
Details: 997537-175-T-J1-PDC complex spheroid viability, combination with POLQ inhibitors; for IC50: curve of first compound; for viability, T/C: stronger effect = lower value
How it was run: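 Three-cell-type spheroids modelling solid tumor plus stroma served as the readout system; POL inhibitors were tested individually and in combination, concentration ranges set by clinical Cmax where known.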
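Also: luminescence signal used as a surrogate for viable cells; spheroids exposed to drugs for seven days before readout.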

With CC[C@@]1(O)C(=O)OCc2c1cc1n(c2=O)Cc2cc3c(CN(C)C)c(O)ccc3nc2-1 + COC1C(OC(N)=O)C(O)C(Oc2ccc3c(O)c(NC(=O)c4ccc(O)c(CC=C(C)C)c4)c(=O)oc3c2C)OC1(C)C the IC50 (second compound 0.0316 µM) was > 100 nM, the IC50 (second compound 0.1 µM) was > 100 nM and the IC50 (second compound 0.316 µM) was > 100 nM. For the same compound, the IC50 (second compound 1 µM) was > 100 nM, the IC50 (second compound 3.16 µM) was > 100 nM and the IC50 (second compound 10 µM) was > 100 nM. The viability, T/C (second compound 0.0316 µM, first compound 0.000316 µM) was 102%, the viability, T/C (second compound 0.0316 µM, first compound 0.001 µM) was 104% and the viability, T/C (second compound 0.0316 µM, first compound 0.00316 µM) was 110%. It also gave a viability, T/C (second compound 0.0316 µM, first compound 0.01 µM) of 103%, a viability, T/C (second compound 0.0316 µM, first compound 0.0316 µM) of 90.8% and a viability, T/C (second compound 0.0316 µM, first compound 0.1 µM) of 77.6%. It also gave a viability, T/C (second compound 0.1 µM, first compound 0.000316 µM) of 111%, a viability, T/C (second compound 0.1 µM, first compound 0.001 µM) of 101% and a viability, T/C (second compound 0.1 µM, first compound 0.00316 µM) of 111%. For the same compound, the viability, T/C (second compound 0.1 µM, first compound 0.01 µM) was 103%, the viability, T/C (second compound 0.1 µM, first compound 0.0316 µM) was 97.2% and the viability, T/C (second compound 0.1 µM, first compound 0.1 µM) was 68.6%. For the same compound, the viability, T/C (second compound 0.316 µM, first compound 0.000316 µM) was 96.2%, the viability, T/C (second compound 0.316 µM, first compound 0.001 µM) was 95% and the viability, T/C (second compound 0.316 µM, first compound 0.00316 µM) was 116%. The viability, T/C (second compound 0.316 µM, first compound 0.01 µM) was 102%, the viability, T/C (second compound 0.316 µM, first compound 0.0316 µM) was 105% and the viability, T/C (second compound 0.316 µM, first compound 0.1 µM) was 58.4%. The viability, T/C (second compound 1 µM, first compound 0.000316 µM) was 90.8%, the viability, T/C (second compound 1 µM, first compound 0.001 µM) was 92.3% and the viability, T/C (second compound 1 µM, first compound 0.00316 µM) was 99.6%. It also gave a viability, T/C (second compound 1 µM, first compound 0.01 µM) of 96.3%, a viability, T/C (second compound 1 µM, first compound 0.0316 µM) of 86% and a viability, T/C (second compound 1 µM, first compound 0.1 µM) of 76.8%. The viability, T/C (second compound 3.16 µM, first compound 0.000316 µM) was 101%, the viability, T/C (second compound 3.16 µM, first compound 0.001 µM) was 110% and the viability, T/C (second compound 3.16 µM, first compound 0.00316 µM) was 107%. For the same compound, the viability, T/C (second compound 3.16 µM, first compound 0.01 µM) was 92.6%, the viability, T/C (second compound 3.16 µM, first compound 0.0316 µM) was 81.7% and the viability, T/C (second compound 3.16 µM, first compound 0.1 µM) was 55.6%. For the same compound, the viability, T/C (second compound 10 µM, first compound 0.000316 µM) was 105%, the viability, T/C (second compound 10 µM, first compound 0.001 µM) was 105% and the viability, T/C (second compound 10 µM, first compound 0.00316 µM) was 107%. For the same compound, the viability, T/C (second compound 10 µM, first compound 0.01 µM) was 98.5%, the viability, T/C (second compound 10 µM, first compound 0.0316 µM) was 98.2% and the viability, T/C (second compound 10 µM, first compound 0.1 µM) was 70.2%.
